These are literature values, as cited in patent US4794170A (priority 1984, dated 1988).

In one series the test system is virus B. The conditions noted are these: chronical hepatitis induced by virus B.
The test system of the next series is hepatocytes. The conditions noted are these: mouse.

For `Nc1ncnc2c1ncn2[C@@H]1O[C@H](COP(=O)(O)O)[C@@H](O)[C@@H]1O` [ara-AMP, adenine-9-beta-D-arabinofuranoside 5'monophosphate], in the series with virus B, the virus replication result was “inhibit the virus replication”.

`Nc1ncnc2c1ncn2[C@@H]1O[C@H](CO)[C@@H](O)[C@@H]1O` [ara-A, adenine-9-beta-D-arabinoside]: the virus replication entry in the series with virus B is “inhibit the virus replication”.

For the compound “ara-A-glut-AF: ara-A glutarate bonded to the asialofetuine (AF) through its hydroxysuccinimidic ester”, the “hepatic targeting of ara-A” value in the series on hepatocytes is reported as “pharmacologically active in producing in the mouse a hepatic targeting of ara-A”.
